Results on three molecules are retold here after patent publication US20260138961A1, “MODULATORS OF MITOCHONDRIAL DNA REPLICATION” (Pretzel Therapeutics, Inc., priority 2022, published 2026).

Molecules are shown by their SMILES. Where only a bound is given, the exact number is not on record here.

This assay addresses T1, POLγA:A467T (Homo sapiens, UniProt P54098, A467T).
T1 sequence (P54098 1-1239 A467T): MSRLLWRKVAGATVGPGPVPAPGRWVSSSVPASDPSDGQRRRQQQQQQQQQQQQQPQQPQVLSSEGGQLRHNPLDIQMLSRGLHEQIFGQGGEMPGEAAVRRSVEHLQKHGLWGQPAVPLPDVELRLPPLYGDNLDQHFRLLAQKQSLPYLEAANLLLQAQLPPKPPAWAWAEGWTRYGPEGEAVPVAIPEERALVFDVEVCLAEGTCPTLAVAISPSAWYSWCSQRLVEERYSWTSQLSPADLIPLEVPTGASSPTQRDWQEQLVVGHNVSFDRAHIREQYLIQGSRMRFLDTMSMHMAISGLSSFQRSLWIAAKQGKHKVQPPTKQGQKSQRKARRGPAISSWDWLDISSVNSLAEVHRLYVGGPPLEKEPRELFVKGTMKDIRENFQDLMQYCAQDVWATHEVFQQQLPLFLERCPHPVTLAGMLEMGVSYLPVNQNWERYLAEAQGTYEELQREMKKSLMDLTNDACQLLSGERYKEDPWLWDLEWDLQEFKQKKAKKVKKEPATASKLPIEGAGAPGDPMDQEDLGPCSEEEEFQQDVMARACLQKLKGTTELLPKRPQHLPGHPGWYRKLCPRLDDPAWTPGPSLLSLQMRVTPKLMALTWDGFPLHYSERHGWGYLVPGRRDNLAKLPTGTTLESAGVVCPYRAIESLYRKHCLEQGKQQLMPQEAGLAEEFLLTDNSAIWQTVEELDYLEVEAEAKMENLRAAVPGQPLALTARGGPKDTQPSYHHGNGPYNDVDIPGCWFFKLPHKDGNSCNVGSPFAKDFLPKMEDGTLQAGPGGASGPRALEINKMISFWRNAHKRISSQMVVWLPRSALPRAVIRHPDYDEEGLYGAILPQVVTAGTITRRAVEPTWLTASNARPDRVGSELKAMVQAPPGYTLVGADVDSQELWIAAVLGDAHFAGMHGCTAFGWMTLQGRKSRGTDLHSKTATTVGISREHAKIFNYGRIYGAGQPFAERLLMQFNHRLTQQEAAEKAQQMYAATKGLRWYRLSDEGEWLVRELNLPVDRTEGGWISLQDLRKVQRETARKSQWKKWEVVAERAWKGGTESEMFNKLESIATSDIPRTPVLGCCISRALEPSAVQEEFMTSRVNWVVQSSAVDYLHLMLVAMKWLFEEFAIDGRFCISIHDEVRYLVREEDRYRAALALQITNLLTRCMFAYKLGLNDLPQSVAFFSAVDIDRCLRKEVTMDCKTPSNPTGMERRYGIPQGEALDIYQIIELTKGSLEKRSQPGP
T1 sequence (Q9UHN1 1-485 partner): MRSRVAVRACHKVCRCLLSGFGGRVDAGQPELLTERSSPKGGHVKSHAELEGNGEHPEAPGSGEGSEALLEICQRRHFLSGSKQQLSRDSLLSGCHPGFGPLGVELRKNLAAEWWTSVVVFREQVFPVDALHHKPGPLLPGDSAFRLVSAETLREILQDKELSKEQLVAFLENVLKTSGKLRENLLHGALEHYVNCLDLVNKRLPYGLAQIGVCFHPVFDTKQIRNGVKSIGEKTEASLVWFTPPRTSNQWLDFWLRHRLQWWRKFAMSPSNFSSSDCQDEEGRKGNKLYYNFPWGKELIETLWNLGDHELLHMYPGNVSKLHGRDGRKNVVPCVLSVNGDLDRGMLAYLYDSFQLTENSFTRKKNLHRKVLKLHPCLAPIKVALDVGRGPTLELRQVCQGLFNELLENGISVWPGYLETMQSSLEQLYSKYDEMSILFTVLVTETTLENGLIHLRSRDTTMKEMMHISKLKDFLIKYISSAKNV
Briefly: DNA polymerization assay, POLγA:A467T mutant. In kind it is biochemical. Particulars: stimulation of polymerase activity, primed M13mp18 ssDNA, 37° C. 2 hours; read-out: A467T AC50.
Turning to `Cc1csc(-c2cccc(NS(=O)(=O)c3cc(C)c(Cl)cc3C)c2)n1` [Example 20, 4-chloro-2,5-dimethyl-N-(3-(4-methylthiazol-2-yl)phenyl)benzenesulfonamide], the AC50 worked out at 4 µM.

Consider `Cc1cc(S(=O)(=O)Nc2cc(C(=O)N3CCC[C@H]3C)ccc2F)c(C)cc1Cl` [Example 50, (R)-4-chloro-N-(2-fluoro-5-(2-methylpyrrolidine-1-carbonyl)phenyl)-2,5-dimethylbenzenesulfonamide], for which the concentration at half-maximal activity (AC50) was above 100 µM.

Regarding `CC(=O)N1CCN(C(=O)c2cccc(NS(=O)(=O)c3cc(C)ccc3C)c2)CC1` [Example 30, N-(3-(4-acetylpiperazine-1-carbonyl)phenyl)-2,5-dimethylbenzenesulfonamide], the concentration at half-maximal activity (AC50) was above 100 µM.
